{
  "source": "patent US9783833B2",
  "about": "“Biocatalytic methods to convert cyclohexane oxidation process waste streams to useful products” (INVISTA NORTH AMERICA S.A. R.L., priority 2011, dated 2017)",
  "key": {"[1]": {"test_system": "wild-type Yarrowia lipolytica", "assay": "Chemo-stat fermentation with cell retention using NVR as carbon and energy source", "conditions": "for Flux: steady state, 2% (v/v) NVR, ~215 mL/h, biomass dilution rate ~0.025 h^-1", "source_text": "The experimental set-up provided for a NVR Feed, Nutrient Feed and Base Feed (12% (v/v) NH3 (aq.)) that was filter sterilized into the fermenter via peristaltic pumps. Furthermore, a peristaltic pump provided the necessary cross-flow retentate flow rate to the hollow fibre membrane, a peristaltic pump allowed withdrawal of permeate and a peristaltic pump allowed for a biomass bleed from the fermenter.\nThe chemo-stat's control philosophy entailed manual feed ratio control of the NVR Feed to Nutrient Feed rates, pH control via the Base Feed, temperature control via cooling water supply to the fermenter's jacket, fixed aeration & agitation rates via the respective feedback loops, fixed cross-flow rate via the retentate pump's variable speed drive, manual level control via the permeate pump and manual dilution rate control via the bleed pump.\nThe initial charge minimal media was prepared (6.7 g/L yeast base without amino acids+(NH4)2SO4, 15 g/L glucose, 75 mg/L citric acid (Mr.=210 g/mol), 5.8 g/L sodium citrate (Mr.=294.1 g/mol), 10.7 g/L K2HPO4 (Mr.=174 g/mol), 5.2 g/L KH2PO4 (M=136.1 g/mol), and 2 mL/L antifoam) and the Nutrient Feed was prepared (6.7 g/L yeast base without amino acids+(NH4)2SO4, 75 mg/L citric acid (Mr.=210 g/mol), 5.8 g/L sodium citrate (Mr.=294.1 g/mol), 10.7 g/L K2HPO4 (Mr.=174 g/mol), 5.2 g/L KH2PO4 (M=136.1 g/mol), and 2 mL/L antifoam). The control parameters for the fermenter were set up (A1 and A2: 1 vvm aeration, pH 7.0, DO calibration at pH 7.0 and 1 vvm to 100% saturation, 28° C., 750 rpm initial agitation until glucose depletion, 1250 rpm final agitation after glucose depletion, manual antifoam).\nThe fermenter was inoculated with a 10% (v/v) inoculum from a wild-type Yarrowia lipolytica shake flask that was grown overnight from a cryopreserved stock."}, "[2]": {"test_system": "Y. lipolytica strains", "assay": "Growth of yeasts in the presence of lactones", "assay_type": "cell-based, Yarrowia lipolytica", "conditions": "0.1 to 1 g/L lactone; strains adapted to 3% NVR, especially Iss#137", "source_text": "FIG. 18 contains three line graphs showing the growth of selected yeasts in the presence of 0.1-1 g/L lactones (γ-butyrolactone, ε-caprolactone, and δ-valerolactone). Iss#125 is a S. cerevisiae control strain. Iss#134 is a Y. lipolytica strain isolated from plates after slow growth on 3% (v/v) NVR+YPD media. Iss#137 is a Y. lipolytica strain isolated from chemo-stat using synthetic NVR component feed.\nA cell retention chemo-stat was required to avoid cell wash-out. […] HPLC analysis confirmed that NVR contains a high concentration (ca. 92 g/L) of valerolactone."}, "[3]": {"assay": "Hydrolysis of oligomers by cutinases (drop plates)", "assay_type": "biochemical", "conditions": "expressed in E. coli or Y. lipolytica; 12 hours at 28° C.", "source_text": "Cutinases from F. solani and A. oryzae were expressed in E. coli BL21 Star with His6 tags using the pET151/D-TOPO vector and the TOPO cloning system (Invitrogen) and purified on His-trap columns. The enzymes were also expressed as secreted extracellular proteins in a Y. lipolytica host strain deficient in the extracellular lipases LIP2, LIP7 & LIP8 (See, Example 7) and the supernatants concentrated 10 fold. Activity was confirmed using p-nitrophenyl butyrate as substrate, commercial lipase as a positive control and the concentrated soluble extract from E. coli transformed with the empty vector as negative control. […] (See, FIG. 26). This is further illustrated by the increase in monomeric acids, especially in the C-6 monomer components (hydroxycaproic acid, adipic acid, caproic acid) and valeric acid, released from the oligomers when cutinases (10 μl supernatant) were incubated with 4% NVR or 4% COP acid (v/v) (1 ml) overnight (See, FIGS. 27A and B)."}, "[4]": {"assay": "Agar plate clearance zone assay on NVR", "assay_type": "biochemical", "conditions": "lipases; 1% (v/v) NVR, pH = 7; 1 U/well, 24 hours", "source_text": "(§1) Screening methods for hydrolysis of oligomeric esters in NVR and COP acid with commercially available lipases and esterases were verified using commercially available caprolactonediol (CPL) polymers with a range of molecular weights. Two screening methods were used to identify candidate enzymes, including an agar plate assay where radial enzyme diffusion produces clearance zones if the oligomer in the agar is hydrolyzed, and a biotransformation assay in which the hydrolysis of the polymer to monomers was assayed by HPLC with UV detection or LC-MS to quantify the concentrations of monomers. […]\n(§2) For plate assays, agar plates (1.5% agarose) containing 1-4% polycaprolactone (PCL), NVR or COP acid (v/v) were prepared with 50 mM citrate, Tris/HCl, or phosphate buffers to assay enzymes for hydrolytic activity at pH 3.5, 5, 7, or 8. […] Clearance zones were measured after 24 hours. […] FIG. 5 is a bar graph comparing the relative activity of esterases at different pHs as measured by the diameter of the clearance zone in the plate assay."}, "[5]": {"assay": "Plate assays, results summarised in words", "assay_type": "biochemical", "conditions": "synthetic PCL diol, NVR and/or COP acid oligomers as named in the sentence; pH 5-8", "method": "For plate assays, agar plates (1.5% agarose) containing 1-4% polycaprolactone (PCL), NVR or COP acid (v/v) were prepared with 50 mM citrate, Tris/HCl, or phosphate buffers to assay enzymes for hydrolytic activity at pH 3.5, 5, 7, or 8. The molecular weight of PCL is 530 g/mol. Wells with a ca. 3 mm diameter were made in the plates, and enzyme added (1 U/well). Clearance zones were measured after 24 hours. Tables 3 and 4 show the results of the agar plate assay with commercial esterases and lipases, respectively, for hydrolysis of oligomers in NVR, COP acid and caprolactone polymers. […] FIG. 5 is a bar graph comparing the relative activity of esterases at different pHs as measured by the diameter of the clearance zone in the plate assay.\nSee, Table 3, 4 and FIG. 4."}, "[6]": {"assay": "Agar plate clearance zone assay on COP acid", "assay_type": "biochemical", "conditions": "lipases; 4% (v/v) COP acid, pH = 7; 1 U/well, 24 hours", "source_text": "as §1, §2"}, "[7]": {"assay": "Lactone hydrolase activity assay (LC/MS)", "assay_type": "biochemical", "conditions": "4% v/v substrate, pH 7.0, 60 minutes", "source_text": "(§3) The lactone hydrolase from Acinobacter was expressed (See, FIG. 3) as a secreted protein in Y. lipolytica with all major extracellular lipases deleted (strain JMY1212, Δlip-2,7,8,11). The secreted hydrolase was concentrated 10 fold by centrifugal filtration of the supernatant (Amicon® Ultra Ultracel® 10K). This enzyme, as well as the lactone hydrolyzing enzymes from Brevibacterium epidermidis and Euglena gracilis were also expressed in E. coli BL21 Star™ (DE3) cells as His tagged proteins using the pET151 inducible expression vector, and the enzymes were purified using HisTrap™ FF columns (GE Healthcare), and concentrated as before by centrifugal filtration to 1 ml after elution from the columns. Activity assays were performed in phosphate buffer (50 mM, pH 7.0) and ZnCl2 (75 mM) containing the substrate (valerolactone, caprolactone, NVR, or COP acid) (4% v/v). Reactions were started by adding 50 μl concentrated enzyme and incubated with shaking for 60 minutes. Reactions were terminated by the addition of 500 μl acetonitrile and analyzed by LC/MS. The buffer control contained 5% glycerol in place of enzyme. To assess hydrolysis of oligomers in COP acid, 10 μl enzyme was added to agar plates (1.5% (w/v)) containing 4% (v/v) COP acid. All experiments were performed in triplicate. […]"}, "[8]": {"assay": "Lactone hydrolases incubated with NVR (LC/MS)", "assay_type": "biochemical", "conditions": "4% v/v NVR, pH 7.0, 60 minutes", "source_text": "as §3"}},
  "data": [
    {"molecule": "O=C(O)CCCCO", "note": "[5-hydroxyvaleric acid]", "values": [
      {"measurement": "Flux", "setting": "[1]", "result": "32 % of valerate uptake"}
    ]},
    {"molecule": "O=C(O)CCCCCO", "note": "[6-hydroxycaproic acid]", "values": [
      {"measurement": "Flux", "setting": "[1]", "result": "18 % of valerate uptake"}
    ]},
    {"molecule": "O=C(O)CCCCC(=O)O", "note": "[adipic acid]", "values": [
      {"measurement": "steady state flux of catabolism relative to the catabolism of valeric acid", "setting": "[1]; not told", "result": 18, "unit": "%"}
    ]},
    {"molecule": "CCCC(=O)O", "note": "[butyric acid]", "values": [
      {"measurement": "steady state flux of catabolism relative to the catabolism of valeric acid", "setting": "[1]; Table 6", "result": 7, "unit": "%"},
      {"measurement": "Flux", "setting": "[1]", "result": "7 % of valerate uptake"}
    ]},
    {"molecule": "CCCCCC(=O)O", "note": "[caproic acid]", "values": [
      {"measurement": "steady state flux of catabolism relative to the catabolism of valeric acid", "setting": "[1]; Table 6", "result": 42, "unit": "%"},
      {"measurement": "Flux", "setting": "[1]", "result": "42 % of valerate uptake"}
    ]},
    {"molecule": "O=C(O)CCCC(=O)O", "note": "[glutaric acid]", "values": [
      {"measurement": "Flux", "setting": "[1]", "result": "12 % of valerate uptake"}
    ]},
    {"molecule": "O=C1CCCO1", "note": "[γ-butyrolactone]", "values": [
      {"measurement": "Flux", "setting": "[1]", "result": "0 % of valerate uptake"}
    ]},
    {"molecule": "O=C1CCCCO1", "note": "[δ-valerolactone]", "values": [
      {"measurement": "effect of lactone on growth of Y. lipolytica strains", "setting": "[2]", "result": "inhibitory"}
    ]},
    {"molecule": "AoC: Aspergillus oryzae cutinase (EMBL D38311.1, UniProt P52956)", "values": [
      {"measurement": "hydrolysis of oligomers in NVR and COP acid (clearance zones)", "setting": "[3]", "result": "able to hydrolyze oligomers in NVR and COP acid"}
    ]},
    {"molecule": "L7: Commercial lipase from Rhizomucor miehei (protein, UniProt P19515 95-363, looked up) Lipase: SIDGGIRAATSQEINELTYYTTLSANSYCRTVIPGATWDCIHCDATEDLKIIKTWSTLIYDTNAMVARGDSEKTIYIVFRGSSSIRNWIADLTFVPVSYPPVSGTKVHKGFLDSYGEVQNELVATVLDQFKQYPSYKVAVTGHSLGGATALLCALDLYQREEGLSSSNLFLYTQGQPRVGDPAFANYVVSTGIPYRRTVNERDIVPHLPPAAFGFLHAGEEYWITDNSPETVQVCTSDLETSDCSNSIVPFTSVLDHLSYFGINTGLCT", "values": [
      {"measurement": "Substrate Clearance Zone Diameter", "setting": "[4]", "result": 1.7},
      {"measurement": "hydrolytic activity in plate assays (in words)", "setting": "[5]", "result": "large clearance zones"},
      {"measurement": "Substrate Clearance Zone Diameter", "setting": "[6]", "result": 2.2}
    ]},
    {"molecule": "ChnC from Acinobacter: Lactone hydrolase, GenBank AAG10029.1, SEQ ID NO:1 (protein, Acinetobacter sp. SE19) MNSTQSNTQFLFDLYANWSRRMQENPNMTIEDFRSMFDEWHQPTLEPEEVSYKFDVVAGVEGLWIYPKDADLSKVIIYTHGGGFAVGSSASHRKLVGHLAKYLGVSAFVVDYRRSPEHVFPAQIQDVTAVYKELLQRGFTAKNMLTAGDSAGGNLAISTVLNLRNEGIELPGAVIAFSPWLDMEHKGETLISNDATDALITVDLLKGMSQMFLGEHGDPANPLANPLKANYQVFPRLYINAGSVESLVDNATRLADIAKKEGVDVTLSVVDNMQHVFPFLAGRASEADQELAKIAQWFKA", "values": [
      {"measurement": "lactone hydrolyzing activity", "setting": "[7]", "result": "highest activity"},
      {"measurement": "hydrolysis of valerolactone in NVR", "setting": "[8]", "result": "hydrolyzed valerolactone"}
    ]},
    {"molecule": "ChnC from Brevibacterium: Lactonohydrolase, GenBank AAK73167.2, SEQ ID NO:2 (protein, listed as Brevibacterium epidermidis) MPTSPPTVSATPMTWSSRRTGRPTSASSASTSWAGPITSSPMSSRQHRRHLGVVASGLSFPNGMVITPDGKTLIVNELFGNKITAFDIGADGKLANKRDFANFGEIGDEPDVAKRIEAATIVPDGLALDAEGAVWIANTVNQNATRIAEGGQILDTVDTAPEGIFAVALGGDDGKTLFLCAAPDWDEGARSKAREGRMLATTVAVPHAGRP", "values": [
      {"measurement": "hydrolysis of valerolactone in NVR", "setting": "[8]", "result": "hydrolyzed valerolactone"}
    ]}
  ]
}
